{"source": "patent US20060100140A1", "about": "“Combination of a) n-{5-[4-(4-methyl-piperazino-methyl)-benzoylamido]2-methylphenyl}-4- (3-pyridyl)-2-pyrimidine-amine and b) a histone deacetylase inhibitor for the treatment of leukemia” (priority 2002, published 2006)", "assay_type_in_all_cases": "cell-based, human", "key": {"[1]": {"system": "Raf", "assay": "Western analysis of Raf expression in K562 cells", "conditions": "2.0 μM SAHA ± 250 nM Compound I, 16 hr", "protocol": "(§1) Immunoblot Analysis: Immunoblotting is performed as described previously (Yu et al., Nat. Rev. Cancer 1:294-202). In brief, after drug treatment cells are pelleted by centrifugation, and lysed immediately in Laemmli buffer [1×=30 mM Tris-base (pH 6.8), 2% SDS, […] β-mercaptoethanol, and 10% glycerol], and briefly sonicated. Homogenates are quantified using Coomassie protein assay reagent (Pierce, Rockford, Ill.). Equal amounts of protein (20 μg) are boiled for 10 min, separated by SDS-PAGE (5% stacker and 10% resolving), and electroblotted to nitrocellulose membrane. After blocking in TBS-T (0.05%) and 5% milk for 1 h at 22° C., the blots are incubated in fresh blocking solution with an appropriate dilution of primary antibody for 4 h at 22° C. […]\n(§2) K562 cells are treated as above, and monitored for expression of Bcl-xL, Mcl-1, and XIAP. […]"}, "[2]": {"system": "cytochrome c, AIF, and Smac/DIABLO", "assay": "Western analysis of release of cytochrome c, AIF and Smac/DIABLO into S-100 cytosolic fraction", "conditions": "K562; Compound I (250 nM), SAHA (2.0 μM); 24 hr"}, "[3]": {"system": "Compound I-resistant LAMA 84 cells (LAMA 84R)", "assay": "Apoptosis by Wright Giemsa-stained cytospin slides in resistant cells", "conditions": "Table 7, 24 hr, Compound I (1.0 or 1.25 μM), SAHA (1.0 or 2.0)", "protocol": "For studies involving the LAMA 84-R line, cells are washed free of drug and resuspended in drug-free medium 48 h before experimentation.\nAssessment of Apoptosis: After drug exposures, cytocentrifuge preparations are stained with Wright-Giemsa and viewed by light microscopy to evaluate the extent of apoptosis (i.e., cell shrinkage, nuclear condensation, formation of apoptotic bodies, etc.) as described previously (Yu et al., Nat. Rev. Cancer 1:294-202). For these studies, the percentage of apoptotic cells is determined by evaluating ≧500 cells/condition in triplicate. To confirm the results of morphological analysis, Annexin V/PI staining is used. Annexin V/PI (BD PharMingen, San Diego, Calif.) analysis of cell death is carried out as per the manufacturer's instructions. In studies involving TNF and TNF soluble receptor, both compound are combined and maintained at room temperature 20 min prior to use. For these experiments 1-2×10^5 cells per condition are harvested. Analysis is carried out using a Becton-Dickinson FACScan cytofluorometer (Mansfield, Mass.). […] The slides are treated with acetic acid/ethanol (1:2), stained with terminal transferase reaction mixture containing 1× terminal transferase reaction buffer (0.25 units/μl terminal transferase, 2.5 mM CoCl2, and 2 pmol fluorescein-12-dUTM; Boehringer Mannheim, Indianapolis, Ind.), and visualized using fluorescence microscopy."}, "[4]": {"system": "K562 cells", "assay": "Apoptosis by morphological analysis of Wright Giemsa-stained cytospin preparations", "conditions": "for percentage of apoptotic cells: Table 2A, 2.0 μM SAHA ± 250 nM Compound I; for % of apoptotic cells: Table 5, K562: SAHA […]", "protocol": "(§3) Experimental Format: Logarithmically growing cells are placed in sterile plastic T-flasks (Corning, Corning, N.Y.) to which are added the designated drugs and the flasks replaced in the incubator for intervals. At the end of the incubation period, cells are transferred to sterile centrifuge tubes, pelleted by centrifugation at 400×g for 10 min at room temperature, and prepared for analysis as described below.\n(§4) Assessment of Apoptosis: After drug exposures, cytocentrifuge preparations are stained with Wright-Giemsa and viewed by light microscopy to evaluate the extent of apoptosis (i.e., cell shrinkage, nuclear condensation, formation of apoptotic bodies, etc.) as described previously (Yu et al., Nat. Rev. Cancer 1:294-202). For these studies, the percentage of apoptotic cells is determined by evaluating ≧500 cells/condition in triplicate. To confirm the results of morphological analysis, Annexin V/PI staining is used. Annexin V/PI (BD PharMingen, San Diego, Calif.) analysis of cell death is carried out as per the manufacturer's instructions. In studies involving TNF and TNF soluble receptor, both compound are combined and maintained at room temperature 20 min prior to use. For these experiments 1-2×10^5 cells per condition are harvested. Analysis is carried out using a Becton-Dickinson FACScan cytofluorometer (Mansfield, Mass.). To further confirm the morphology results, TUNEL staining is used. For TUNEL staining, cytocentrifuge preparations are obtained and fixed with 4% formaldehyde. The slides are treated with acetic acid/ethanol (1:2), stained with terminal transferase reaction mixture containing 1× terminal transferase reaction buffer (0.25 units/μl terminal transferase, 2.5 mM CoCl2, and 2 pmol fluorescein-12-dUTM; Boehringer Mannheim, Indianapolis, Ind.), and visualized using fluorescence microscopy."}, "[5]": {"system": "phospho-JNK", "assay": "Western analysis of phospho-JNK in K562 cells", "conditions": "2.0 μM SAHA ± 250 nM Compound I, 16 hr", "protocol": "as §1, §2"}, "[6]": {"system": "NB4 promyelocytic leukemia cells", "assay": "Apoptosis by Wright Giemsa-stained cytospin slides", "conditions": "NB4: SAHA 1.5 μM; Compound I 250 nM; 24 hr", "protocol": "as §3, §4"}, "[7]": {"system": "HL-60 promyelocytic leukemia cells", "assay": "Apoptosis by Wright Giemsa-stained cytospin slides", "conditions": "HL-60: SAHA 1.0 μM; Compound I 250 nM; 24 hr", "protocol": "as §3, §4"}, "[8]": {"system": "U937 monocytic leukemia", "assay": "Apoptosis by Wright Giemsa-stained cytospin slides", "conditions": "U937: SAHA 1.5 μM; Compound I 250 nM; 24 hr", "protocol": "as §3, §4"}, "[9]": {"system": "Jurkat lymphoblastic leukemia", "assay": "Apoptosis by Wright Giemsa-stained cytospin slides", "conditions": "Jurkat: SAHA 0.75 μM; Compound I 250 nM; 24 hr", "protocol": "as §3, §4"}}, "data": [{"smiles": "Cc1ccc(NC(=O)c2ccc(CN3CCN(C)CC3)cc2)cc1Nc1nccc(-c2cccnc2)n1", "note": "[Compound I, N-{5-[4-(4-methyl-piperazino-methyl)-benzoylamido]-2-methylphenyl}-4-(3-pyridyl)-2-pyrimidine-amine]", "values": [{"measurement": "expression of Raf", "setting": "[1]", "result": "little effect"}, {"measurement": "release of cytochrome c, AIF, and Smac/DIABLO into the cytosolic S-100 cell fraction", "setting": "[2]", "result": "minimal"}, {"measurement": "Compound I + SAHA % of apoptotic cells", "setting": "[3]", "result": "14.8 ± 4.7", "unit": "%"}, {"measurement": "apoptosis", "setting": "[4]; Table 1A, Compound I 100 nM, SAHA 0 or 2 μM, 24 hr", "result": "1.1 ± 0.5", "unit": "%"}, {"measurement": "apoptosis", "setting": "[4]; Table 1A, Compound I 150 nM, SAHA 0 or 2 μM, 24 hr", "result": "1.3 ± 0.6", "unit": "%"}, {"measurement": "apoptosis", "setting": "[4]; Table 1A, Compound I 200 nM, SAHA 0 or 2 μM, 24 hr", "result": "1.6 ± 0.6", "unit": "%"}, {"measurement": "apoptosis", "setting": "[4]; Table 1A, Compound I 250 nM, SAHA 0 or 2 μM, 24 hr", "result": "2.8 ± 1.2", "unit": "%"}, {"measurement": "apoptosis", "setting": "[4]; Table 1B, SAHA 0 μM, Compound I 250 nM, 24 hr", "result": "2.7 ± 1.2", "unit": "%"}, {"measurement": "percentage of apoptotic cells", "setting": "[4]; 0 hours", "result": "0.6 ± 0.2", "unit": "%"}, {"measurement": "percentage of apoptotic cells", "setting": "[4]; 6 hours", "result": "1.1 ± 0.5", "unit": "%"}, {"measurement": "percentage of apoptotic cells", "setting": "[4]; 12 hours", "result": "2.1 ± 0.8", "unit": "%"}, {"measurement": "percentage of apoptotic cells", "setting": "[4]; 18 hours", "result": "3.3 ± 1.0", "unit": "%"}, {"measurement": "percentage of apoptotic cells", "setting": "[4]; 24 hours", "result": "3.5 ± 1.2", "unit": "%"}, {"measurement": "percentage of apoptotic cells", "setting": "[4]; 48 hours", "result": "21.8 ± 3.4", "unit": "%"}, {"measurement": "% of apoptotic cells", "setting": "[4]; Compound I 250 nM, 24 hr", "result": "8.3 ± 3.2", "unit": "%"}, {"measurement": "Compound I + SB % of apoptotic cells", "setting": "[4]; Table 6, K562, 24 hr, sodium butyrate (SB; 1 or 2 mM), Compound I concentration not given", "result": "10.3 ± 3.6", "unit": "%"}, {"measurement": "cell death", "setting": "[4]; sensitive K562, Compound I (1.0 or 1.25 μM) for 48 hr, data not shown", "result": "~100", "unit": "%"}, {"measurement": "expression of phospho-JNK (JNK activation)", "setting": "[5]", "result": "fail to modify"}, {"measurement": "% of apoptotic cells", "setting": "[6]", "result": "1.8 ± 1.3", "unit": "%"}, {"measurement": "% of apoptotic cells", "setting": "[7]", "result": "3.1 ± 1.3", "unit": "%"}, {"measurement": "% of apoptotic cells", "setting": "[8]", "result": "0.9 ± 08", "unit": "%"}, {"measurement": "% of apoptotic cells", "setting": "[9]", "result": "1.1 ± 0.6", "unit": "%"}]}, {"smiles": "O=C(CCCCCCC(=O)Nc1ccccc1)NO", "note": "[SAHA, suberoylanilide hydroxamic acid]", "values": [{"measurement": "expression of Raf", "setting": "[1]", "result": "clear reduction"}, {"measurement": "release of cytochrome c, AIF, and Smac/DIABLO into the cytosolic S-100 cell fraction", "setting": "[2]", "result": "minimal"}, {"measurement": "Compound I + SAHA % of apoptotic cells", "setting": "[3]", "result": "10.3 ± 3.4", "unit": "%"}, {"measurement": "apoptosis", "setting": "[4]; Table 1B, SAHA 1 μM, Compound I 0 or 250 nM, 24 hr", "result": "0.8 ± 0.4", "unit": "%"}, {"measurement": "apoptosis", "setting": "[4]; Table 1B, SAHA 1.5 μM, Compound I 0 or 250 nM, 24 hr", "result": "1.6 ± 0.7", "unit": "%"}, {"measurement": "apoptosis", "setting": "[4]; Table 1B, SAHA 2.0 μM, Compound I 0 or 250 nM, 24 hr", "result": "2.7 ± 0.7", "unit": "%"}, {"measurement": "apoptosis", "setting": "[4]; Table 1B, SAHA 3.0 μM, Compound I 0 or 250 nM, 24 hr", "result": "28.4 ± 3.2", "unit": "%"}, {"measurement": "apoptosis", "setting": "[4]; Table 1B, SAHA […], Compound I 0 or 250 nM, 24 hr", "result": "14.5 ± 1.3", "unit": "%"}, {"measurement": "percentage of apoptotic cells", "setting": "[4]; 0 hours", "result": "0.6 ± 0.2", "unit": "%"}, {"measurement": "percentage of apoptotic cells", "setting": "[4]; 6 hours", "result": "0.9 ± 0.2", "unit": "%"}, {"measurement": "percentage of apoptotic cells", "setting": "[4]; 12 hours", "result": "1.7 ± 0.5", "unit": "%"}, {"measurement": "percentage of apoptotic cells", "setting": "[4]; 18 hours", "result": "2.3 ± 0.8", "unit": "%"}, {"measurement": "percentage of apoptotic cells", "setting": "[4]; 24 hours", "result": "3.5 ± 1.1", "unit": "%"}, {"measurement": "percentage of apoptotic cells", "setting": "[4]; 48 hours", "result": "14.8 ± 2.1", "unit": "%"}, {"measurement": "% of apoptotic cells", "setting": "[4]; Compound I 250 nM, 24 hr", "result": "6.6 ± 3.8", "unit": "%"}, {"measurement": "expression of phospho-JNK (JNK activation)", "setting": "[5]", "result": "fail to modify"}, {"measurement": "% of apoptotic cells", "setting": "[6]", "result": "5.6 ± 2.3", "unit": "%"}, {"measurement": "% of apoptotic cells", "setting": "[7]", "result": "6.4 ± 1.9", "unit": "%"}, {"measurement": "% of apoptotic cells", "setting": "[8]", "result": "5.4 ± 1.9", "unit": "%"}, {"measurement": "% of apoptotic cells", "setting": "[9]", "result": "6.3 ± 3.2", "unit": "%"}]}]}
